Legend:
[1] = system: phosphorus and calcium levels in the urine of rats; experiment: Urinary excretion of phosphate and calcium in rats (16 h overnight urine); type: in vivo, rat; conditions: rats, oral gavage, 16 h post-dose
[2] = system: absorption of sodium from the intestinal lumen; experiment: Inhibition of intestinal sodium absorption: urinary sodium (uNa) 16 h after single oral dose in rats; type: in vivo, rat; conditions: oral gavage, 16 h post-dose
Procedure: (§1) Inhibition of intestinal sodium and phosphate absorption. Urinary sodium concentration and fecal form were measured to assess the ability of selected example compounds to inhibit the absorption of sodium from the intestinal lumen. Eight-week old Sprague-Dawley rats were purchased from Charles River Laboratories (Hollister, CA), were housed 2 per cage, and acclimated for at least 3 days before study initiation. Animals were fed Harlan Teklad Global 2018 rodent chow (Indianapolis, IN) and water ad libitum throughout the study and maintained in a standard light/dark cycle of 6 AM to 6 PM. On the day of the study, between 4 PM and 5 PM, a group of rats (n=6) were dosed via oral gavage with test compound, or a pharmaceutically acceptable salt thereof, or vehicle (water) at a volume of 10 mL/kg.
(§2) After dose administration animals were placed in individual metabolic cages where they were also fed the same chow in meal form and watered ad libitum. At 16 h post-dose, the urine samples were collected and fecal form was assessed by two independent observations. Fecal forms were scored according to a common scale associated with increasing fecal water to the wettest observation in the cage's collection funnel (1, normal pellet; 2, pellet adhering to sides of collection funnel due to moisture; 3, loss of normal pellet shape; 4, complete loss of shape with a blotting pattern; 5, liquid fecal streams evident). A rat's fecal form score (FFS) was determined by averaging both observational scores for all rats within a group (n=6). The vehicle group average was 1.
For urine samples, the volumes were determined gravimetrically and centrifuged at 3,600×g. The supernatants were diluted 100-fold in deionized Milli-Q water then filtered through a 0.2 μm GHP Pall AcroPrep filter plate (Pall Life Sciences, Ann Arbor, MI) prior to analysis by ion chromatography. Ten microliters of each filtered extract was injected onto a Dionex ICS-3000 ion chromatograph system (Dionex, Sunnyvale, CA). Cations were separated by an isocratic method using 25 mM methanesulfonic acid as the eluent on an IonPac CS12A 2 mm i.d.×250 mm, 8 μm particle size cation exchange column (Dionex). Sodium was quantified using standards prepared from a cation standard mix containing Li^+, Na^+, NH4^+, K^+, Mg^2+, and Ca^2+ (Dionex). The mean mass of sodium urinated for every group in the 16 h period was determined with the vehicle group usually urinating approximately 21 mg sodium. The urine Na (uNa) for rats in the test groups were expressed as a percentage of the vehicle mean and the means were compared to that of the vehicle group by utilizing a one-way analysis of variance coupled with a Dunnett's post hoc test.
Further experiments were performed to test the compounds under the persistent and prompt conditions described above, and to test their effects on urinary excretion of sodium in rats. The latter was performed by orally dosing the compounds in rats (single dose) and measuring urinary Na excretion (as a % of vehicle). The results are indicated as percentage of urinary sodium (UNa %); low values indicate relatively active compounds.

[3] = system: absorption of sodium from the intestinal lumen; experiment: Fecal form score (FFS) 16 h after oral dose in rats; type: in vivo, rat; conditions: oral gavage, 16 h post-dose, scale 1-5
Procedure: as §1, §2

Rat NHE3 = molecular target: T1, Rat NHE3 (Rattus norvegicus, UniProt P26433); experiment: Cell-based NHE3 activity under prompt conditions (OK cells, BCECF pH recovery), rat NHE3; conditions: prompt conditions
T1 construct: expressed in transfected cells; host or cells: Opossum kidney (OK) cells (ATCC), electroporation
Procedure: Cell-based activity under Prompt Conditions. Rat or human NHE3-mediated Na^+-dependent H antiport was measured using a modification of the pH sensitive dye method originally reported by Paradiso (PNAS USA. 81:7436-7440, 1984). Opossum kidney (OK) cells were obtained from the ATCC and propagated per their instructions. The rat NHE3 gene (GenBank M85300) or the human NHE3 gene (GenBank NM_004174.1) was introduced into OK cells via electroporation, and cells were seeded into 96 well plates and grown overnight. Medium was aspirated from the wells, cells were washed twice with NaCl-HEPES buffer (100 mM NaCl, 50 mM HEPES, 10 mM glucose, 5 mM KCl, 2 mM CaCl2, 1 mM MgCl2, pH 7.4), then incubated for 30 min at room temperature with NH4Cl-HEPES buffer (20 mM NH4Cl, 80 mM NaCl, 50 mM HEPES, 5 mM KCl, 2 mM CaCl2, 1 mM MgCl2, pH 7.4) containing 5 μM bis(acetoxymethyl) 3,3′-(3′,6′-bis(acetoxymethoxy)-5-((acetoxymethoxy)carbonyl)-3-oxo-3H-spiro[isobenzofuran-1,9′-xanthene]-2′,7′-diyl)dipropanoate (BCECF-AM).
Cells were washed twice with Ammonium free, Na^+-free HEPES (100 mM choline, 50 mM HEPES, 10 mM glucose, 5 mM KCl, 2 mM CaCl2, 1 mM MgCl2, pH 7.4) and incubated in the same buffer for 10 minutes at room temperature to lower intracellular pH. […] Initial rates were plotted as the average 2 or more replicates, and pIC50 values were estimated using GraphPad Prism.
Cell-based activity of NHE3 Activity under ‘Prompt’ Conditions. This assay was performed as described in Example 1 (supra).

T1 sequence (P26433 29-831): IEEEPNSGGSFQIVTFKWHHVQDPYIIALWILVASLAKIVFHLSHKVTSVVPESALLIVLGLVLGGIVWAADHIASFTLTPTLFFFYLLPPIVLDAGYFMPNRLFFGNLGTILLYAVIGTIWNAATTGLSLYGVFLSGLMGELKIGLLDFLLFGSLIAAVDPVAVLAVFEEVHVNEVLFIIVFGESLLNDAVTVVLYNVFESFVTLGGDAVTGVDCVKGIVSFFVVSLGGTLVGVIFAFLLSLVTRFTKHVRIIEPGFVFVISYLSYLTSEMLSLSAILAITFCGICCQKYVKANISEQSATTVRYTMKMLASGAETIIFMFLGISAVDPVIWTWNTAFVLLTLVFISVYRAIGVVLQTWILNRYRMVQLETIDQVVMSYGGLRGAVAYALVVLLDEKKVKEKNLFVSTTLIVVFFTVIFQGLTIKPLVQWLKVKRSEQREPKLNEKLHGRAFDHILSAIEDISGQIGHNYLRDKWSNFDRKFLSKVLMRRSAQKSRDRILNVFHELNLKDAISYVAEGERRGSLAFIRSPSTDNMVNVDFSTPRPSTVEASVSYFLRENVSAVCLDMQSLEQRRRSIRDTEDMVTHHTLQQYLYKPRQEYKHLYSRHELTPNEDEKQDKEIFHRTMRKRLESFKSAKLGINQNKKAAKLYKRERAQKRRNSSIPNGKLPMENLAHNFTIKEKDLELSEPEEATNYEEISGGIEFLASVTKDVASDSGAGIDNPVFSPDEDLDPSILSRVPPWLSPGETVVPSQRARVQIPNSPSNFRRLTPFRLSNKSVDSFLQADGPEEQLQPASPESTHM

Row | Compound | Prompt Rat NHE3 pIC50 (Rat NHE3) | Urine P % of control ([1]; dose 10 mg/kg) [%] | Urine Na % of control ([2]; dose 10 mg/kg) [%] | Fecal Form Score average ([3]; dose 10 mg/kg) | Urine P % of control ([1]; dose 3 mg/kg) [%] | Urine Na % of control ([2]; dose 3 mg/kg) [%] | Fecal Form Score average ([3]; dose 3 mg/kg) | Urine P % of control ([1]; dose 1 mg/kg) [%] | Urine Na % of control ([2]; dose 1 mg/kg) [%] | Fecal Form Score average ([3]; dose 1 mg/kg)
1 | CN(CC(=O)NCCOCCOCCNS(=O)(=O)c1ccc(O[C@H]2c3ccccc3C[C@@H]2N2CCCCC2)cc1)CC(=O)NCCOCCOCCNS(=O)(=O)c1ccc(O[C@H]2c3ccccc3C[C@@H]2N2CCCCC2)cc1 (racemic) [compound 50] |  | 50 | 82 | 1 |  |  |  |  |  | 
2 | CN1Cc2c(Cl)cc(Cl)cc2[C@H](c2cccc(S(=O)(=O)NCCOCCOCCNC(=O)CCC(CCC(=O)NCCOCCOCCNS(=O)(=O)c3cccc([C@@H]4CN(C)Cc5c(Cl)cc(Cl)cc54)c3)(CCC(=O)NCCOCCOCCNS(=O)(=O)c3cccc([C@@H]4CN(C)Cc5c(Cl)cc(Cl)cc54)c3)NC(=O)[C@H]3CCCC[C@@H]3C(=O)O)c2)C1 (racemic) [compound 141] |  |  |  |  | 24 | 63 | 2 |  |  | 
3 | CN1Cc2c(Cl)cc(Cl)cc2C(c2cccc(S(N)(=O)=O)c2)C1 (stereo not drawn) [compound 1] | 6.60 | 52 | 87 | 1 |  |  |  |  |  | 
4 | CN1Cc2c(Cl)cc(Cl)cc2[C@@H](c2cccc(S(=O)(=O)NCCOCCOCCNC(=O)NCCCCNC(=O)NCCOCCOCCNS(=O)(=O)c3cccc([C@@H]4CN(C)Cc5c(Cl)cc(Cl)cc54)c3)c2)C1 [compound 39] | 7.30 | 130 | 68 | 1 |  |  |  | 166 | 71 | 1
5 | CN1Cc2c(Cl)cc(Cl)cc2[C@H](c2cccc(S(=O)(=O)NCCOCCOCCOCCNC(=O)c3ccc(-c4ccc(Cl)cc4)cc3)c2)C1 [compound 93] | <5.00 | 75 | 78 | 1 |  |  |  |  |  | 
6 | CCCCCCCCOCCOCCOCCOCCOCCOC(=O)NCCOCCOCCOCCNS(=O)(=O)c1cccc([C@@H]2CN(C)Cc3c(Cl)cc(Cl)cc32)c1 [compound 102] | 6.60 | 92 | 86 | 1 |  |  |  |  |  | 
7 | CCC(=O)NCCOCCOCCOCCNS(=O)(=O)c1cccc([C@@H]2CN(C)Cc3c(Cl)cc(Cl)cc32)c1 [compound 103] | 6.70 | 71 | 40 | 1 |  |  |  |  |  | 
8 | CN1Cc2c(Cl)cc(Cl)cc2[C@H](c2cccc(S(=O)(=O)NCCOCCOCCNC(=O)NCCN(CCNC(=O)NCCOCCOCCNS(=O)(=O)c3cccc([C@@H]4CN(C)Cc5c(Cl)cc(Cl)cc54)c3)C(=O)NCCOCCOCCNC(=O)c3ccc(-c4ccc(Cl)cc4)cc3)c2)C1 [compound 110] | 5.80 |  |  |  | 68 | 63 | 1 |  |  | 
9 | CCCCCCCCOc1ccc(CNCCOCCOCCOCCNS(=O)(=O)c2cccc([C@@H]3CN(C)Cc4c(Cl)cc(Cl)cc43)c2)cc1 [compound 111] | <5.00 | 69 | 60 | 2 |  |  |  |  |  | 
10 | CC(C)CCC[C@@H](C)[C@H]1CC[C@H]2[C@@H]3CC=C4C[C@@H](OC(=O)NCCOCCOCCNC(=O)N(CCNC(=O)NCCOCCOCCNS(=O)(=O)c5cccc([C@@H]6CN(C)Cc7c(Cl)cc(Cl)cc76)c5)CCNC(=O)NCCOCCOCCNS(=O)(=O)c5cccc([C@@H]6CN(C)Cc7c(Cl)cc(Cl)cc76)c5)CC[C@]4(C)[C@H]3CC[C@]12C [compound 121] | <5.00 |  |  |  | 151 | 92 | 1 |  |  | 
11 | CC(C)CCC[C@@H](C)[C@H]1CC[C@H]2[C@@H]3CC=C4C[C@@H](OC(=O)NCCOCCOCCOCCNS(=O)(=O)c5cccc([C@@H]6CN(C)Cc7c(Cl)cc(Cl)cc76)c5)CC[C@]4(C)[C@H]3CC[C@]12C [compound 125] | <5.00 | 278 | 81 | 1 |  |  |  |  |  | 

Continued, in another order:

Row | Prompt Rat NHE3 pIC50 (Rat NHE3) | Compound | Urine P % of control ([1]; dose 10 mg/kg) [%] | Urine Na % of control ([2]; dose 10 mg/kg) [%] | Fecal Form Score average ([3]; dose 10 mg/kg) | Urine P % of control ([1]; dose 3 mg/kg) [%] | Urine Na % of control ([2]; dose 3 mg/kg) [%] | Fecal Form Score average ([3]; dose 3 mg/kg) | Urine P % of control ([1]; dose 1 mg/kg) [%] | Urine Na % of control ([2]; dose 1 mg/kg) [%] | Fecal Form Score average ([3]; dose 1 mg/kg)
12 | 7.80 | CN1Cc2c(Cl)cc(Cl)cc2C(c2cccc(S(=O)(=O)NCCOCCOCCNC(=O)CN(CCOCCOCCOCCN)CC(=O)NCCOCCOCCNS(=O)(=O)c3cccc([C@@H]4CN(C)Cc5c(Cl)cc(Cl)cc54)c3)c2)C1 (stereo in doubt) [compound 120] |  |  |  | 71 | 71 | 1 |  |  | 
13 | <5.00 | CCCCCCCCCCC(=O)NCCOCCOCCOCCNS(=O)(=O)c1cccc([C@@H]2CN(C)Cc3c(Cl)cc(Cl)cc32)c1 [compound 92] | 70 | 62 | 1 |  |  |  |  |  | 
14 | 6.70 | C=CC(=O)NCCOCCOCCOCCNS(=O)(=O)c1cccc([C@@H]2CN(C)Cc3c(Cl)cc(Cl)cc32)c1 [compound 104] | 62 | 56 | 2 |  |  |  |  |  | 
15 | 5.90 | CN1Cc2c(Cl)cc(Cl)cc2[C@H](c2cccc(S(=O)(=O)NCCOCCOCCNC(=O)CN(CCOCCOCCOCCNC(=O)c3ccc(-c4ccc(Cl)cc4)cc3)CC(=O)NCCOCCOCCNS(=O)(=O)c3cccc([C@@H]4CN(C)Cc5c(Cl)cc(Cl)cc54)c3)c2)C1 [compound 105] |  |  |  | 154 | 119 | 1 |  |  | 
16 | 8.40 | CN1Cc2c(Cl)cc(Cl)cc2[C@H](c2cccc(S(=O)(=O)NCCOCCOCCNC(=O)NCCN(CCNC(=O)NCCOCCOCCNS(=O)(=O)c3cccc([C@@H]4CN(C)Cc5c(Cl)cc(Cl)cc54)c3)C(=O)NCCOCCOCCN)c2)C1 [compound 108] |  |  |  | 51 | 13 | 4 |  |  | 
17 | <5.00 | CN1Cc2c(Cl)cc(Cl)cc2[C@H](c2cccc(S(=O)(=O)NCCOCCOCCOCCNCc3ccc(-c4ccc(Cl)cc4)cc3)c2)C1 [compound 112] | 67 | 73 | 1 |  |  |  |  |  | 

From US20240366589A1, “NHE3-BINDING COMPOUNDS AND METHODS FOR INHIBITING PHOSPHATE TRANSPORT” (Ardelyx, Inc., priority 2013, published 2024)
